According to US20060240405A1, “Method for assaying replication of hbv and testing ... drugs” (priority 2002, published 2006):

System: wild type HBV genomes population
Assay: Phenotypic drug susceptibility assay: Huh7 cells transfected with type-I vector clones, Southern blot of intracellular replicative HBV DNA intermediates
Conditions: Hepatitis B virus, Huh-7, read-out: IC50 (intracellular replicative HBV DNA intermediates)

`Nc1ccn([C@@H]2CS[C@H](CO)O2)c(=O)n1` [lamivudine, β-L-(−)-2′,3′-dideoxy-3′-thiacytidine] gave an IC50 of less than 100 nM.
